Patent US20130165520A1, “Hybrid Molecule Having Mixed Retinoic Acid Receptor Agonism and Histone Deacetylase Inhibitory Properties” (priority 2010, published 2013)

Key:
[1] = test system: MDA-MB-435; test: cells; conditions: Homo sapiens, MDA-MB-435, 48 h
[2] = test system: TK-10; test: cells; conditions: Homo sapiens, TK-10, 48 h
[3] = test system: OVCAR-8; test: cells; conditions: Homo sapiens, OVCAR-8, 48 h
[4] = test system: NCI/ADR-RES; test: cells; conditions: Homo sapiens, 48 h
[5] = test system: OVCAR-5; test: cells; conditions: Homo sapiens, OVCAR-5, 48 h
[6] = test system: SF-295; conditions: SF-295 (CNS); 48 h
[7] = test system: SK-MEL-28; conditions: SK-MEL-28 (Melanoma); 48 h
[8] = test system: UACC-257; test: cells; conditions: Homo sapiens, UACC-257, 48 h
[9] = test system: MOLT-4; test: cells; conditions: Homo sapiens, MOLT-4, 48 h
[10] = test system: A549/ATCC; conditions: A549/ATCC (Non-Small cell lung cancer); 48 h
[11] = test system: UACC-257; conditions: UACC-257 (Melanoma); 48 h
[12] = test system: SK-MEL-2; conditions: SK-MEL-2 (Melanoma); 48 h
[13] = test system: SF-268; test: cells; conditions: Homo sapiens, SF-268, 48 h
[14] = test system: HS578T; test: cells; conditions: Homo sapiens, Hs-578T, 48 h
[15] = test system: SK-MEL-2; test: cells; conditions: Homo sapiens, SK-MEL-2, 48 h
[16] = test system: SN12C; test: cells; conditions: Homo sapiens, 48 h
[17] = test system: A498; conditions: A498 (Renal); 48 h
[18] = test system: UACC-62; test: cells; conditions: Homo sapiens, UACC-62, 48 h

SMILES: CC1(C)CCC(C)(C)c2cc(-c3ccc4cc(C(=O)NO)ccc4c3)ccc21 [hybrid 3]
- GI50 [1]: 0.879 µM
- CC50 ([1]; read-out: LC50): 6.8 µM
- GI50 [2]: 1.1 µM
- CC50 ([2]; read-out: LC50): 25 µM
- GI50 [3]: 0.459 µM
- CC50 ([3]; read-out: LC50): 5.12 µM
- GI50 [4]: 0.502 µM
- CC50 ([4]; read-out: LC50): 5.34 µM
- GI50 [5]: 4.12 µM
- CC50 ([5]; read-out: LC50): 46.1 µM
- TGI [6]: 1.77 µM
- TGI [7]: 5.5 µM
- GI50 [8]: 1.98 µM
- CC50 ([8]; read-out: LC50): 29.7 µM
- GI50 [9]: 0.371 µM
- CC50 ([9]; read-out: LC50): 7.8 µM
- TGI [10]: 2.15 µM
- TGI [11]: 7.34 µM
- TGI [12]: 6.31 µM
- GI50 [13]: 0.533 µM
- CC50 ([13]; read-out: LC50): 5.05 µM
- GI50 [14]: 3.02 µM
- CC50 ([14]; read-out: LC50): 64.8 µM
- GI50 [15]: 2.42 µM
- CC50 ([15]; read-out: LC50): 33.6 µM
- GI50 [16]: 1.05 µM
- CC50 ([16]; read-out: LC50): 5.34 µM
- TGI [17]: 3.8 µM
- GI50 [18]: 0.512 µM
- CC50 ([18]; read-out: LC50): 5.17 µM
